According to patent publication US9440962B2, “Benzisoxazoles” (Hoffmann-La Roche Inc., priority 2012, dated 2016):

How the values were obtained:
[1] = system: human embryonic stem cell derived neural stem cells (NSCs); experiment: Neural stem cell proliferation assay (neurogenesis assay, ATP levels by CellTiterGlo); assay type: cell-based; settings: 96 h, compound concentration at which 150% activity of control (100%) is reached, ATP levels after 4 days incubation, dose response 8 μM to 8 nM
Method: Neural Stem Cell Proliferation Assay
Neurogenic properties of small molecules are determined based on the proliferation of human embryonic stem cell derived neural stem cells (NSCs) which were derived via a dual smad inhibition as previously described (Chambers, S. M., et al., Highly efficient neural conversion of human ES and iPS cells by dual inhibition of SMAD signaling, Nature biotechnology, 2009. 27(3): p. 275-80.)
Compounds respond is measured by the increase in cells based on ATP levels (Promega:CellTiterGlo®) after an incubation period of 4 days.
NSCs are thawed and expanded over 3 passages. On the 14th day, NSCs are seeded in Polyornithin/Laminin coated 384 well plates at a cell density of 21′000 cells/cm^2 in a media volume of 38 μl.
4 hours after cell seeding, compound solutions are added at a volume of 2 μl. Stock solutions of the compounds (water, 5% DMSO) are diluted to obtain a dose response (11 points, dilution factor is 2), ranging from 8 μM to 8 nM. Controls are run to consistently determine the neurogenic properties of the cells: • Negative (neutral) control is cell culture Media (final DMSO concentration: 0.25%). Positive controls are: • 1. cell culture Media+100 ng/ml FGF2 (final DMSO concentration: 0.1%) • 2. cell culture Media+20 ng/ml EGF (final DMSO concentration: 0.1%) • 3. cell culture Media+100 ng/ml Wnt3a (final DMSO concentration: 0.1%)
After 4 days incubation at 37° C., 5% CO2, the amount of ATP per well is quantified. The ATP concentration is proportional to the cell number. ATP is quantified by using the Promega CellTiterGlo® kit. The CellTiterGlo® reagents contain a cell lysis buffer, a thermo stable luciferase (UltraGlo™ recombinant luciferase), magnesium and luciferin. Luciferin reacts with ATP producing oxyluciferin, AMP and light. The luminescence signal is proportional to the ATP content.
The value of negative (neutral) control is determined for each assay plate by taking the average of 16 negative control wells. The neurogenic compound response is calculated for each compound as (compound/Negative Control)* 100.
The values of EC150 from the dose response curve are determined for each test compound. The EC150 is the compound concentration at which 150% activity of control (100%) is reached.

SMILES	melting point [°C]	EC (150% of control) [1] [µM]
COc1ccc(-n2nccc2-c2ccc3noc(-c4cccc(F)c4)c3c2)cc1 [Example 21, 3-(3-Fluoro-phenyl)-5-[2-(4-methoxy-phenyl)-2H-pyrazol-3-yl]-benzo[c]isoxazole]	203	0.51
COc1ccc(-c2onc3ccc(-c4ccnn4-c4ccc(F)cc4)cc23)cc1 [Example 13, 5-[2-(4-Fluoro-phenyl)-2H-pyrazol-3-yl]-3-(4-methoxy-phenyl)-benzo[c]isoxazole]	153	0.39
Fc1ccc(-n2nccc2-c2ccc3noc(-c4cccc(F)c4)c3c2)cc1 [Example 10, 3-(3-Fluoro-phenyl)-5-[2-(4-fluoro-phenyl)-2H-pyrazol-3-yl]-benzo[c]isoxazole]	176	0.56
Cc1ccc(-c2onc3ccc(-c4ccnn4-c4ccc(C)cc4)cc23)cc1 [Example 16, 3-p-Tolyl-5-(2-p-tolyl-2H-pyrazol-3-yl)-benzo[c]isoxazole]	190	0.055
COc1ccc(-n2nccc2-c2ccc3noc(-c4ccc(Cl)cc4)c3c2)cc1 [Example 23, 3-(4-Chloro-phenyl)-5-[2-(4-methoxy-phenyl)-2H-pyrazol-3-yl]-benzo[c]isoxazole]	177	0.31
Cc1ccc(-n2nccc2-c2ccc3noc(-c4ccc(C(F)(F)F)cc4)c3c2)cc1 [Example 17, 5-(2-p-Tolyl-2H-pyrazol-3-yl)-3-(4-trifluoromethyl-phenyl)-benzo[c]isoxazole]	173	1.13
Fc1ccc(-c2onc3ccc(-c4ccnn4-c4ccc(Cl)cc4)cc23)cc1 [Example 25, 5-[2-(4-Chloro-phenyl)-2H-pyrazol-3-yl]-3-(4-fluoro-phenyl)-benzo[c]isoxazole]	154	0.32
Fc1ccc(-c2onc3ccc(-c4ccnn4-c4ccccc4F)cc23)cc1 [Example 1, 3-(4-Fluoro-phenyl)-5-[2-(2-fluoro-phenyl)-2H-pyrazol-3-yl]-benzo[c]isoxazole]	171	0.12
Cc1ccc(-n2nccc2-c2ccc3noc(-c4ccc(Cl)cc4)c3c2)cc1 [Example 18, 3-(4-Chloro-phenyl)-5-(2-p-tolyl-2H-pyrazol-3-yl)-benzo[c]isoxazole]	204	0.093
COc1ccc(-c2onc3ccc(-c4ccnn4-c4ccc(OC)cc4)cc23)cc1 [Example 24, 3-(4-Methoxy-phenyl)-5-[2-(4-methoxy-phenyl)-2H-pyrazol-3-yl]-benzo[c]isoxazole]	133	0.26
COc1ccc(-n2nccc2-c2ccc3noc(-c4ccc(F)cc4)c3c2)cc1 [Example 20, 3-(4-Fluoro-phenyl)-5-[2-(4-methoxy-phenyl)-2H-pyrazol-3-yl]-benzo[c]isoxazole]	179	0.36
Fc1cccc(-c2onc3ccc(-c4ccnn4-c4ccccc4F)cc23)c1 [Example 2, 3-(3-Fluoro-phenyl)-5-[2-(2-fluoro-phenyl)-2H-pyrazol-3-yl]-benzo[c]isoxazole]	186	0.29
Cc1ccc(-c2onc3ccc(-c4ccnn4-c4ccccc4F)cc23)cc1 [Example 3, 5-[2-(2-Fluoro-phenyl)-2H-pyrazol-3-yl]-3-p-tolyl-benzo[c]isoxazole]	173	0.12
Fc1ccccc1-n1nccc1-c1ccc2noc(-c3ccc(Cl)cc3)c2c1 [Example 5, 3-(4-Chloro-phenyl)-5-[2-(2-fluoro-phenyl)-2H-pyrazol-3-yl]-benzo[c]isoxazole]	191	0.033
COc1ccc(-n2nccc2-c2ccc3noc(-c4ccc(C)cc4)c3c2)cc1 [Example 22, 5-[2-(4-Methoxy-phenyl)-2H-pyrazol-3-yl]-3-p-tolyl-benzo[c]isoxazole]	159	0.18
Fc1ccccc1-n1nccc1-c1ccc2noc(-c3ccc(C(F)(F)F)cc3)c2c1 [Example 4, 5-[2-(2-Fluoro-phenyl)-2H-pyrazol-3-yl]-3-(4-trifluoromethyl-phenyl)-benzo[c]isoxazole]	156	0.92
COc1ccc(-c2onc3ccc(-c4ccnn4-c4ccccc4F)cc23)cc1 [Example 6, 5-[2-(2-Fluoro-phenyl)-2H-pyrazol-3-yl]-3-(4-methoxy-phenyl)-benzo[c]isoxazole]	134	0.073
COc1ccc(-c2onc3ccc(-c4ccnn4-c4ccc(C)cc4)cc23)cc1 [Example 19, 3-(4-Methoxy-phenyl)-5-(2-p-tolyl-2H-pyrazol-3-yl)-benzo[c]isoxazole]	165	0.045
Cc1ccc(-n2nccc2-c2ccc3noc(-c4ccc(F)cc4)c3c2)cc1 [Example 14, 3-(4-Fluoro-phenyl)-5-(2-p-tolyl-2H-pyrazol-3-yl)-benzo[c]isoxazole]	173	0.091

The next lines start with results.

melting point [°C]	SMILES	EC (150% of control) [1] [µM]
165	Fc1cccc(-c2onc3ccc(-c4ccnn4-c4ccc(F)cc4F)cc23)c1 [Example 29, 5-[2-(2,4-Difluoro-phenyl)-2H-pyrazol-3-yl]-3-(3-fluoro-phenyl)-benzo[c]isoxazole]	0.25
162	COc1ccc(-c2onc3ccc(-c4ccnn4-c4ccc(F)cc4)cc23)cc1F [Example 37, 3-(3-Fluoro-4-methoxy-phenyl)-5-[2-(4-fluoro-phenyl)-2H-pyrazol-3-yl]-benzo[c]isoxazole]	1.1
165	COc1ccc(-c2onc3ccc(-c4ccnn4-c4ccc(F)cc4F)cc23)cc1 [Example 33, 5-[2-(2,4-Difluoro-phenyl)-2H-pyrazol-3-yl]-3-(4-methoxy-phenyl)-benzo[c]isoxazole]	0.068
183	COc1ccc(-c2onc3ccc(-c4ccnn4-c4ccc(F)cc4F)cc23)cc1F [Example 40, 5-[2-(2,4-Difluoro-phenyl)-2H-pyrazol-3-yl]-3-(3-fluoro-4-methoxy-phenyl)-benzo[c]isoxazole]	0.23
168	COc1ccc(-c2onc3ccc(-c4ccnn4-c4ccccc4F)cc23)cc1F [Example 36, 3-(3-Fluoro-4-methoxy-phenyl)-5-[2-(2-fluoro-phenyl)-2H-pyrazol-3-yl]-benzo[c]isoxazole]	0.16
172	Clc1ccc(-c2onc3ccc(-c4ccnn4-c4ccccc4Cl)cc23)cc1 [Example 42, 3-(4-Chloro-phenyl)-5-[2-(2-chloro-phenyl)-2H-pyrazol-3-yl]-benzo[c]isoxazole]	0.3
197	COc1ccc(-c2onc3ccc(-c4ccnn4-c4ccc(C)cc4)cc23)cc1F [Example 39, 3-(3-Fluoro-4-methoxy-phenyl)-5-(2-p-tolyl-2H-pyrazol-3-yl)-benzo[c]isoxazole]	0.25
149	Fc1ccc(-c2onc3ccc(-c4ccnn4-c4ccc(F)cc4F)cc23)cc1 [Example 28, 5-[2-(2,4-Difluoro-phenyl)-2H-pyrazol-3-yl]-3-(4-fluoro-phenyl)-benzo[c]isoxazole]	0.07
161	Fc1ccc(-c2onc3ccc(-c4ccnn4-c4ccccc4Cl)cc23)cc1 [Example 41, 5-[2-(2-Chloro-phenyl)-2H-pyrazol-3-yl]-3-(4-fluoro-phenyl)-benzo[c]isoxazole]	0.22
155	Fc1ccc(-n2nccc2-c2ccc3noc(-c4ccc(Cl)cc4)c3c2)c(F)c1 [Example 32, 3-(4-Chloro-phenyl)-5-[2-(2,4-difluoro-phenyl)-2H-pyrazol-3-yl]-benzo[c]isoxazole]	0.073
147	Cc1ccc(-c2onc3ccc(-c4ccnn4-c4ccc(F)cc4F)cc23)cc1 [Example 30, 5-[2-(2,4-Difluoro-phenyl)-2H-pyrazol-3-yl]-3-p-tolyl-benzo[c]isoxazole]	0.04
159	Fc1ccc(-n2nccc2-c2ccc3noc(-c4ccc(C(F)(F)F)cc4)c3c2)c(F)c1 [Example 31, 5-[2-(2,4-Difluoro-phenyl)-2H-pyrazol-3-yl]-3-(4-trifluoromethyl-phenyl)-benzo[c]isoxazole]	0.96
